Results reported in PubChem BioAssay (NCI).
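Briefly, cells in 96-well plates were exposed to five compound concentrations for 48 h, and endpoints were estimated by linear interpolation. At the GI50, growth is halved. TGI: concentration producing complete growth inhibition.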

Experiments:
Experiment in all cases: DTP human tumour cell line panel, 48 h
OVCAR-5 ovarian = tested on: OVCAR-5 ovarian
ACHN renal = tested on: ACHN renal
IGROV1 ovarian = tested on: IGROV1 ovarian
HOP-92 NSCLC = tested on: HOP-92 NSCLC
SK-OV-3 ovarian = tested on: SK-OV-3 ovarian
CAKI-1 renal = tested on: CAKI-1 renal
HS 578T breast = tested on: HS 578T breast
SF-539 CNS = tested on: SF-539 CNS
NCI-H460 lung = tested on: NCI-H460 lung
OVCAR-4 ovarian = tested on: OVCAR-4 ovarian
NCI/ADR-RES ovarian = tested on: NCI/ADR-RES ovarian
NCI-H23 lung = tested on: NCI-H23 lung
A498 renal = tested on: A498 renal
TK-10 renal = tested on: TK-10 renal
SR leukemia = tested on: SR leukemia
MCF7 breast = tested on: MCF7 breast
PC-3 prostate = tested on: PC-3 prostate
SF-295 CNS = tested on: SF-295 CNS
UACC-257 melanoma = tested on: UACC-257 melanoma
UACC-62 melanoma = tested on: UACC-62 melanoma
DU-145 prostate = tested on: DU-145 prostate
SF-268 CNS = tested on: SF-268 CNS
SW-620 colon = tested on: SW-620 colon
MDA-MB-435 = tested on: MDA-MB-435
M14 melanoma = tested on: M14 melanoma
MALME-3M melanoma = tested on: MALME-3M melanoma
NCI-H522 lung = tested on: NCI-H522 lung

Q: `C=C1C(O)C2C(=C(CC(C)C)C13CC3)C(=O)C(C)(C)C2O` (stereo not drawn) was tested. Which GI50 (OVCAR-5 ovarian) did it give?
A: Its GI50 is over 100 µM.

Q: And the TGI (OVCAR-5 ovarian)?
A: The TGI was over 100 µM.

Q: What about the GI50 (ACHN renal) of the same compound?
A: The GI50 was over 100 µM.

Q: And the TGI (ACHN renal)?
A: The TGI was over 100 µM.

Q: What about the GI50 (IGROV1 ovarian) of the same compound?
A: Its GI50 is over 100 µM.

Q: And the TGI (IGROV1 ovarian)?
A: The TGI was over 100 µM.

Q: And the GI50 (HOP-92 NSCLC)?
A: Its GI50 is over 100 µM.

Q: And the TGI (HOP-92 NSCLC)?
A: The TGI was over 100 µM.

Q: What about the GI50 (SK-OV-3 ovarian) of the same compound?
A: Its GI50 is over 100 µM.

Q: And the TGI (SK-OV-3 ovarian)?
A: The TGI was over 100 µM.

Q: And the GI50 (CAKI-1 renal)?
A: Its GI50 is over 100 µM.

Q: What about the TGI (CAKI-1 renal) of the same compound?
A: The TGI was over 100 µM.

Q: What about the GI50 (HS 578T breast) of the same compound?
A: Its GI50 is over 100 µM.

Q: And the TGI (HS 578T breast)?
A: Its TGI is over 100 µM.

Q: What about the GI50 (SF-539 CNS) of the same compound?
A: Its GI50 is over 100 µM.

Q: What about the TGI (SF-539 CNS) of the same compound?
A: The TGI was over 100 µM.

Q: And the GI50 (NCI-H460 lung)?
A: Its GI50 is over 100 µM.

Q: What about the TGI (NCI-H460 lung) of the same compound?
A: Its TGI is over 100 µM.

Q: What about the GI50 (OVCAR-4 ovarian) of the same compound?
A: Its GI50 is over 100 µM.

Q: What about the TGI (OVCAR-4 ovarian) of the same compound?
A: Its TGI is over 100 µM.

Q: What about the GI50 (NCI/ADR-RES ovarian) of the same compound?
A: The GI50 was over 100 µM.

Q: What about the TGI (NCI/ADR-RES ovarian) of the same compound?
A: Its TGI is over 100 µM.

Q: And the GI50 (NCI-H23 lung)?
A: The GI50 was over 100 µM.

Q: What about the TGI (NCI-H23 lung) of the same compound?
A: Its TGI is over 100 µM.

Q: What about the GI50 (A498 renal) of the same compound?
A: The GI50 was over 100 µM.

Q: What about the TGI (A498 renal) of the same compound?
A: Its TGI is over 100 µM.

Q: And the GI50 (TK-10 renal)?
A: The GI50 was over 100 µM.

Q: What about the TGI (TK-10 renal) of the same compound?
A: Its TGI is over 100 µM.

Q: What about the GI50 (SR leukemia) of the same compound?
A: The GI50 was over 100 µM.

Q: And the TGI (SR leukemia)?
A: Its TGI is over 100 µM.

Q: And the GI50 (MCF7 breast)?
A: The GI50 was over 100 µM.

Q: And the TGI (MCF7 breast)?
A: The TGI was over 100 µM.

Q: And the GI50 (PC-3 prostate)?
A: The GI50 was over 100 µM.

Q: And the TGI (PC-3 prostate)?
A: Its TGI is over 100 µM.

Q: And the GI50 (SF-295 CNS)?
A: Its GI50 is over 100 µM.

Q: What about the TGI (SF-295 CNS) of the same compound?
A: Its TGI is over 100 µM.

Q: What about the GI50 (UACC-257 melanoma) of the same compound?
A: The GI50 was over 100 µM.

Q: And the TGI (UACC-257 melanoma)?
A: Its TGI is over 100 µM.

Q: What about the GI50 (UACC-62 melanoma) of the same compound?
A: The GI50 was over 100 µM.

Q: What about the TGI (UACC-62 melanoma) of the same compound?
A: Its TGI is over 100 µM.

Q: What about the GI50 (DU-145 prostate) of the same compound?
A: Its GI50 is over 100 µM.

Q: What about the TGI (DU-145 prostate) of the same compound?
A: Its TGI is over 100 µM.

Q: What about the GI50 (SF-268 CNS) of the same compound?
A: Its GI50 is over 100 µM.

Q: And the TGI (SF-268 CNS)?
A: The TGI was over 100 µM.

Q: What about the GI50 (SW-620 colon) of the same compound?
A: The GI50 was over 100 µM.

Q: And the TGI (SW-620 colon)?
A: The TGI was over 100 µM.

Q: What about the GI50 (MDA-MB-435) of the same compound?
A: Its GI50 is over 100 µM.

Q: And the TGI (MDA-MB-435)?
A: The TGI was over 100 µM.

Q: What about the GI50 (M14 melanoma) of the same compound?
A: Its GI50 is over 100 µM.

Q: And the TGI (M14 melanoma)?
A: Its TGI is over 100 µM.

Q: What about the GI50 (MALME-3M melanoma) of the same compound?
A: The GI50 was 89.9 µM.

Q: What about the TGI (MALME-3M melanoma) of the same compound?
A: The TGI was over 100 µM.

Q: And the GI50 (NCI-H522 lung)?
A: Its GI50 is over 100 µM.
